From ChEMBL document CHEMBL1177794, “Broad spectrum alkynyl inhibitors of T315I Bcr-Abl” (Bioorg Med Chem Lett, 2010)

Key:
[1] = biological target: Serine/threonine-protein kinase Sgk3 (Homo sapiens) (UniProt Q96BR1); experiment: Inhibition of SGK3 at 10 uM
[2] = biological target: Receptor-interacting serine/threonine-protein kinase 4 (Homo sapiens) (UniProt P57078); experiment: Inhibition of RIPK4 at 10 uM
[3] = biological target: Serine/threonine-protein kinase Nek5 (Homo sapiens) (UniProt Q6P3R8); experiment: Inhibition of NEK5 at 10 uM
[4] = biological target: Mitogen-activated protein kinase kinase kinase 10 (Homo sapiens) (UniProt Q02779); experiment: Inhibition of MLK2 at 10 uM
[5] = biological target: Serine/threonine-protein kinase OSR1 (Homo sapiens) (UniProt O95747); experiment: Inhibition of OSR1 at 10 uM
[6] = biological target: Phosphatidylinositol 5-phosphate 4-kinase type-2 gamma (Homo sapiens) (UniProt Q8TBX8); experiment: Inhibition of PIP5K2C at 10 uM
Phosphatidylinositol 5-phosphate 4-kinase type-2 gamma (Homo sapiens), sequence (Q8TBX8 whole entry): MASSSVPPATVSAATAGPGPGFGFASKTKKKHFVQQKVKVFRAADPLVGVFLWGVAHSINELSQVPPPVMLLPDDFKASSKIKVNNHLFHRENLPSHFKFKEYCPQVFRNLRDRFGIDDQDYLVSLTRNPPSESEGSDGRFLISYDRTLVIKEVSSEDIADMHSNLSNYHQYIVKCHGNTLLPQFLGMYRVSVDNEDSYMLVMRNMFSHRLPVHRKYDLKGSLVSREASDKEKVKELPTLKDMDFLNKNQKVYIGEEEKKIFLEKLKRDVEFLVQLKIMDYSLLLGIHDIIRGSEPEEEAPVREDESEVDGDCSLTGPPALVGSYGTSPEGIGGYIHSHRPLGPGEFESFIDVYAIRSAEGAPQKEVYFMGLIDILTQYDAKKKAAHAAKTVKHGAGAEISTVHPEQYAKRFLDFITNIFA

[7] = biological target: Serine/threonine-protein kinase TBK1 (Homo sapiens) (UniProt Q9UHD2); experiment: Inhibition of TBK1 at 10 uM
[8] = biological target: Calcium-dependent protein kinase 1 (Plasmodium falciparum) (UniProt P62344); experiment: Inhibition of Plasmodium falciparum PFCDPK1 at 10 uM; settings: values are per cent of control
[9] = system: Proto-oncogene tyrosine-protein kinase receptor Ret (Homo sapiens), P07949 [M918T]; experiment: Inhibition of RET M918T mutant at 10 uM; values are per cent of control
[10] = biological target: Mitogen-activated protein kinase kinase kinase kinase 2 (Homo sapiens) (UniProt Q12851); experiment: Inhibition of MAP4K2 at 10 uM; settings: values are per cent of control
[11] = biological target: Receptor tyrosine-protein kinase erbB-4 (Homo sapiens) (UniProt Q15303); experiment: Inhibition of ERBB4 at 10 uM; values are per cent of control
Receptor tyrosine-protein kinase erbB-4 (Homo sapiens), sequence (Q15303 whole entry): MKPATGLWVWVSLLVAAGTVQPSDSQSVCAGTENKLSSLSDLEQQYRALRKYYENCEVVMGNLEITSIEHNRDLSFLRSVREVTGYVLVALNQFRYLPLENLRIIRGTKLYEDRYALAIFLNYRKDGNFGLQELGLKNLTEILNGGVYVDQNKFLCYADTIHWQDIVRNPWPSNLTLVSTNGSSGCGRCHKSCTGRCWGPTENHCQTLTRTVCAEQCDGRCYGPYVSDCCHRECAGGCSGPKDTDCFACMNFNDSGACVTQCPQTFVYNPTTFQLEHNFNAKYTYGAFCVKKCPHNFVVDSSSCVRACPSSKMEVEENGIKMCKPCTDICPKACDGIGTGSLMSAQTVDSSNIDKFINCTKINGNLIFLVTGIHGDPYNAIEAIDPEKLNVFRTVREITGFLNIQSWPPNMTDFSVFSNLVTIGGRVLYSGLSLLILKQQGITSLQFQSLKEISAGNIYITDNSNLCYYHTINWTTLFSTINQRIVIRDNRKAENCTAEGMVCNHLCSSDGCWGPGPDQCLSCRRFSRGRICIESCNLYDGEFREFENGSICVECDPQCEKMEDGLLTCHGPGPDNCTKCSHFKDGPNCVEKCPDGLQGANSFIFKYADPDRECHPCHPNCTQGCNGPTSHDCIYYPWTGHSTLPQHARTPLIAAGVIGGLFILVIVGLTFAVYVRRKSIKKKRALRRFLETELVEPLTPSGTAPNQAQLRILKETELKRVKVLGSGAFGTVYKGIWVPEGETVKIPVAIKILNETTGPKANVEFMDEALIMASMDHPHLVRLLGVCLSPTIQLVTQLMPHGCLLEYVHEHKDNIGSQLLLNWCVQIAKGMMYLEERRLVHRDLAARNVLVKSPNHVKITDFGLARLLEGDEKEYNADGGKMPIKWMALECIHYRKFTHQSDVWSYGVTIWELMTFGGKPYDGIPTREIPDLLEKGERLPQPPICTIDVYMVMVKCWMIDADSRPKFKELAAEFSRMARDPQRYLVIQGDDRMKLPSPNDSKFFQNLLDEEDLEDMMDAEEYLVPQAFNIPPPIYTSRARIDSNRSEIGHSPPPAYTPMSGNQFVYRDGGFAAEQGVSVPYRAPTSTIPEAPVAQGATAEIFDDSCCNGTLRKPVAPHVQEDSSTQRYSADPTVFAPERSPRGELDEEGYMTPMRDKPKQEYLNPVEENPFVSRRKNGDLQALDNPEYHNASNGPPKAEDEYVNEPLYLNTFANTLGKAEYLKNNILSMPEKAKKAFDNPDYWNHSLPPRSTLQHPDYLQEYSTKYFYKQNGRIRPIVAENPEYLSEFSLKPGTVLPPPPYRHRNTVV

[12] = biological target: Receptor-interacting serine/threonine-protein kinase 1 (Homo sapiens) (UniProt Q13546); experiment: Inhibition of RIPK1 at 10 uM; settings: values are per cent of control
Receptor-interacting serine/threonine-protein kinase 1 (Homo sapiens), sequence (Q13546 whole entry, canonical isoform): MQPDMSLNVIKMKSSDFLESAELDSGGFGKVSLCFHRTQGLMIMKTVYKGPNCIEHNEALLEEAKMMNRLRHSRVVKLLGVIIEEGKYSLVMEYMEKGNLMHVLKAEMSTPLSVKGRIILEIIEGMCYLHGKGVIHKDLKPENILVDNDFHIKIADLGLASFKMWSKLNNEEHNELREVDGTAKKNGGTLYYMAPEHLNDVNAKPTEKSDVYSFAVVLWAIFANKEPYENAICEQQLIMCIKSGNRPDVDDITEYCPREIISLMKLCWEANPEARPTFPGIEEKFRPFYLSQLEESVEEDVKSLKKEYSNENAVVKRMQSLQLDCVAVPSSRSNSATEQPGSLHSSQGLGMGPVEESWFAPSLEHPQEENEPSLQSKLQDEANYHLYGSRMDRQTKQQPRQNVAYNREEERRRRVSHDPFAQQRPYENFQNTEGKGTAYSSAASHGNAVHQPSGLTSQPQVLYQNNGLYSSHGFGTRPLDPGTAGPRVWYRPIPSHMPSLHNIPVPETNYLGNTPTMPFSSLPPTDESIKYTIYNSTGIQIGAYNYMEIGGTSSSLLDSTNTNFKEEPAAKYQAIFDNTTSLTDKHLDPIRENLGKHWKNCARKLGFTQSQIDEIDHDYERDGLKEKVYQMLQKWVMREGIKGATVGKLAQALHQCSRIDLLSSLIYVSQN

[13] = system: Phosphatidylinositol 4,5-bisphosphate 3-kinase catalytic subunit alpha isoform (Homo sapiens), P42336 [E545A]; experiment: Inhibition of PIK3CA E545A mutant at 10 uM
Phosphatidylinositol 4,5-bisphosphate 3-kinase catalytic subunit alpha isoform (Homo sapiens), P42336 [E545A], sequence (P42336 whole entry E545A, canonical isoform): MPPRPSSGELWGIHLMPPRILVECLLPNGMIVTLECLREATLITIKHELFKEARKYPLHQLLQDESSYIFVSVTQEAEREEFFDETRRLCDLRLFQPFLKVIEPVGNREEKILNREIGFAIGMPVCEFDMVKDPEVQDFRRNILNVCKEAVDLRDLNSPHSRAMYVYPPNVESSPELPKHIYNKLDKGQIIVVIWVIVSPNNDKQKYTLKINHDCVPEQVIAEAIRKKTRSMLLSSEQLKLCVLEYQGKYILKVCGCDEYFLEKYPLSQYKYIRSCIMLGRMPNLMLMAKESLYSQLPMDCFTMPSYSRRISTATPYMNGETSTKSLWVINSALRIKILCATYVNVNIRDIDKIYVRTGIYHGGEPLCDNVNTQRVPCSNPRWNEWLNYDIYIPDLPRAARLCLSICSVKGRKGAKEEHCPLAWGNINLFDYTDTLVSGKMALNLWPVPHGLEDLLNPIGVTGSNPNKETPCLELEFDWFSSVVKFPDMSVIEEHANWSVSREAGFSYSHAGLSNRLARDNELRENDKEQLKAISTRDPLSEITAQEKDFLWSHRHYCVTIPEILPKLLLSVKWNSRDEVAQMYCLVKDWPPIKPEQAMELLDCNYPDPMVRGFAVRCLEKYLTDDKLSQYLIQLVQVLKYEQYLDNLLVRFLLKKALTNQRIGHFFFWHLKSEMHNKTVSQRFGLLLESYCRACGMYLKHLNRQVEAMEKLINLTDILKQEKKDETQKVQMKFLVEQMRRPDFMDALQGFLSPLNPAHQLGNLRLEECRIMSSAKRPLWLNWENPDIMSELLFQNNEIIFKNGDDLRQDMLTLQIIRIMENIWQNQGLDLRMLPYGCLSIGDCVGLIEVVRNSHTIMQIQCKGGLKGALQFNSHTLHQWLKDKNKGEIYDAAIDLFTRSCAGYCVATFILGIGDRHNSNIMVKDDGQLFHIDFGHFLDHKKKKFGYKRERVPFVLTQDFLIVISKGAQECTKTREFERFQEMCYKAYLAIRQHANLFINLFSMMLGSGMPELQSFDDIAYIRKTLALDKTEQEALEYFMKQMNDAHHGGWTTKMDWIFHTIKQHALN

[14] = biological target: Dual specificity tyrosine-phosphorylation-regulated kinase 1B (Homo sapiens) (UniProt Q9Y463); experiment: Inhibition of DYRK1B at 10 uM; settings: values are per cent of control
[15] = biological target: Activin receptor type-1-like (Homo sapiens) (UniProt P37023); experiment: Inhibition of ACVRL1 at 10 uM; settings: values are per cent of control
[16] = biological target: Cyclin-dependent kinase 16 (Homo sapiens) (UniProt Q00536); experiment: Inhibition of PCTK1 at 10 uM; settings: values are per cent of control
[17] = biological target: Tyrosine-protein kinase FRK (Homo sapiens) (UniProt P42685); experiment: Inhibition of FRK at 10 uM; settings: values are per cent of control
[18] = biological target: Tyrosine-protein kinase Fgr (Homo sapiens) (UniProt P09769); experiment: Inhibition of FGR at 10 uM; settings: values are per cent of control
[19] = system: Tyrosine-protein kinase ABL1 (Homo sapiens), P00519 [Q252H]; experiment: Inhibition of phosphorylated ABL1 Q252H mutant at 10 uM; settings: values are per cent of control
[20] = biological target: Tyrosine-protein kinase Blk (Homo sapiens) (UniProt P51451); experiment: Inhibition of BLK at 10 uM; settings: values are per cent of control
[21] = biological target: Serine/threonine-protein kinase Nek1 (Homo sapiens) (UniProt Q96PY6); experiment: Inhibition of NEK1 at 10 uM
[22] = biological target: Testis-specific serine/threonine-protein kinase 1 (Homo sapiens) (UniProt Q9BXA7); experiment: Inhibition of TSSK1B at 10 uM; settings: values are per cent of control
[23] = biological target: Protein kinase C eta type (Homo sapiens) (UniProt P24723); experiment: Inhibition of PRKCH at 10 uM
Protein kinase C eta type (Homo sapiens), sequence (P24723 whole entry): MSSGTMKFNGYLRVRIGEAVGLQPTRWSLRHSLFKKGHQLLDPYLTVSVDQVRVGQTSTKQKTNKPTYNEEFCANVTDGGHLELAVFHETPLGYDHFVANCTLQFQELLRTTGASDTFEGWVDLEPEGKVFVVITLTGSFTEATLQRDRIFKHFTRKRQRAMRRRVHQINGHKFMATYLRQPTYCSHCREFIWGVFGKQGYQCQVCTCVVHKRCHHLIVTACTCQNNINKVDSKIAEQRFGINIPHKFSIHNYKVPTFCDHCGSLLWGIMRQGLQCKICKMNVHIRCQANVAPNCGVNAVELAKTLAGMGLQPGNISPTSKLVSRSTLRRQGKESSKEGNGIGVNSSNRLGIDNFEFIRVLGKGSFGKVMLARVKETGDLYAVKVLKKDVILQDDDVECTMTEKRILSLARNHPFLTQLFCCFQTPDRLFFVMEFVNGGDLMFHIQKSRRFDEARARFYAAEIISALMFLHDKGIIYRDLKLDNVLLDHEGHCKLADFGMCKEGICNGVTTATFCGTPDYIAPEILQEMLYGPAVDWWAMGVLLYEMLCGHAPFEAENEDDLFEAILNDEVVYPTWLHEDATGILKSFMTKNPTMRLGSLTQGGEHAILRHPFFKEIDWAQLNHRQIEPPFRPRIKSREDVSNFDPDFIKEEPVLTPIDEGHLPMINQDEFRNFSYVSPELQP

[24] = system: Tyrosine-protein kinase ABL1 (Homo sapiens), P00519 [M351T]; experiment: Inhibition of phosphorylated ABL1 M351T mutant at 10 uM; settings: values are per cent of control
[25] = biological target: Vascular endothelial growth factor receptor 3 (Homo sapiens) (UniProt P35916); experiment: Inhibition of FLT4 at 10 uM; settings: values are per cent of control
[26] = biological target: Serine/threonine-protein kinase D1 (Homo sapiens) (UniProt Q15139); experiment: Inhibition of PRKD1 at 10 uM
[27] = biological target: Ephrin type-A receptor 3 (Homo sapiens) (UniProt P29320); experiment: Inhibition of EPHA3 at 10 uM; settings: values are per cent of control
[28] = biological target: Fibroblast growth factor receptor 1 (Homo sapiens) (UniProt P11362); experiment: Inhibition of FGFR1 at 10 uM; settings: values are per cent of control
[29] = biological target: Myosin light chain kinase, smooth muscle (Homo sapiens) (UniProt Q15746); experiment: Inhibition of MYLK at 10 uM
[30] = biological target: Dual specificity mitogen-activated protein kinase kinase 2 (Homo sapiens) (UniProt P36507); experiment: Inhibition of MEK2 at 10 uM; settings: values are per cent of control
Dual specificity mitogen-activated protein kinase kinase 2 (Homo sapiens), sequence (P36507 whole entry): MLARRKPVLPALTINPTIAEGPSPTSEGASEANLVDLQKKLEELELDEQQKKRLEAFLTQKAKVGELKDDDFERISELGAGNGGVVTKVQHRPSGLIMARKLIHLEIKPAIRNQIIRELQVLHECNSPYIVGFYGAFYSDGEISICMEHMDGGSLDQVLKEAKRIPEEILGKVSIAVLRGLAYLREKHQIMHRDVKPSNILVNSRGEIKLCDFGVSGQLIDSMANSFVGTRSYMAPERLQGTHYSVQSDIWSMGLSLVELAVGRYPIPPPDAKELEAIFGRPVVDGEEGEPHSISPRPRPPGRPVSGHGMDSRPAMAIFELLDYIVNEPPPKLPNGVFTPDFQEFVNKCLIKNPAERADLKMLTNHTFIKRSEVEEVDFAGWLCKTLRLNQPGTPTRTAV

[31] = biological target: Mitogen-activated protein kinase 1 (Homo sapiens) (UniProt P28482); experiment: Inhibition of ERK2 at 10 uM; values are per cent of control
[32] = biological target: ALK tyrosine kinase receptor (Homo sapiens) (UniProt Q9UM73); experiment: Inhibition of ALK at 10 uM; values are per cent of control
[33] = biological target: Dual specificity mitogen-activated protein kinase kinase 5 (Homo sapiens) (UniProt Q13163); experiment: Inhibition of MEK5 at 10 uM; settings: values are per cent of control
[34] = biological target: Activin receptor type-1B (Homo sapiens) (UniProt P36896); experiment: Inhibition of ACVR1B at 10 uM; settings: values are per cent of control
BaF3 = experiment: Antiproliferative activity against mouse BAF3 cells; assay type: functional, cell-based
[35] = biological target: Serine/threonine-protein kinase PRP4 homolog (Homo sapiens) (UniProt Q13523); experiment: Inhibition of PRP4 at 10 uM
[36] = biological target: Rho-associated protein kinase 2 (Homo sapiens) (UniProt O75116); experiment: Inhibition of ROCK2 at 10 uM
[37] = biological target: Cyclin-dependent kinase 4/cyclin D1 (Homo sapiens) (UniProt P11802+P24385); experiment: Inhibition of CDK4/cyclin D1 at 10 uM; values are per cent of control
[38] = biological target: Mitogen-activated protein kinase 3 (Homo sapiens) (UniProt P27361); experiment: Inhibition of ERK1 at 10 uM; settings: values are per cent of control
Mitogen-activated protein kinase 3 (Homo sapiens), sequence (P27361 whole entry, the tested form may be a part): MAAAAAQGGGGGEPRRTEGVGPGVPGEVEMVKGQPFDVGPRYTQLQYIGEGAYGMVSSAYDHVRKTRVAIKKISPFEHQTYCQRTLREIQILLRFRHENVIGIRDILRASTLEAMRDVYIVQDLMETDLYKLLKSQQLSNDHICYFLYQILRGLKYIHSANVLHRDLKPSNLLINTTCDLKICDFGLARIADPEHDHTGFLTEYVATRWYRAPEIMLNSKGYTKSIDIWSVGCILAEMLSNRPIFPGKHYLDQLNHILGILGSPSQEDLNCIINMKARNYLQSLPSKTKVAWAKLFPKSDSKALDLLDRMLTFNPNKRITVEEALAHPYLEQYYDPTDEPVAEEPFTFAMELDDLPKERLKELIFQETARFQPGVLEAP

[39] = biological target: Ribosomal protein S6 kinase alpha-1 (Homo sapiens) (UniProt Q15418); experiment: Inhibition of RSK1 N-terminal domain1 at 10 uM
[40] = biological target: Serine/threonine-protein kinase PLK3 (Homo sapiens) (UniProt Q9H4B4); experiment: Inhibition of PLK3 at 10 uM
[41] = biological target: Serine/threonine-protein kinase STK11 (Homo sapiens) (UniProt Q15831); experiment: Inhibition of LKB1 at 10 uM; settings: values are per cent of control
[42] = system: Mast/stem cell growth factor receptor Kit (Homo sapiens), P10721 [D816V]; experiment: Inhibition of KIT D816V mutant at 10 uM; settings: values are per cent of control
[43] = biological target: Serine/threonine-protein kinase Nek6 (Homo sapiens) (UniProt Q9HC98); experiment: Inhibition of NEK6 at 10 uM

`CCN1CCN(Cc2ccc(NC(=O)c3ccc(C)c(C#Cc4cccnc4)c3)cc2C(F)(F)F)CC1` was tested, and the inhibition [1] was 6.2%, the inhibition [2] was 48% and the inhibition [3] was 4.8%. The inhibition [4] was 40%, the inhibition [5] was 48% and the inhibition [6] was 100%. For the same compound, the inhibition [7] was 100%, the residual binding, % of control [8] was 0.05% and the level, % of control [9] was 0%. For the same compound, the residual binding, % of control [10] was 0%, the level, % of control [11] was 1.8% and the residual binding, % of control [12] was 0.05%. The inhibition [13] was 93%, the residual binding, % of control [14] was 47% and the residual binding, % of control [15] was 100%. For the same compound, the residual binding, % of control [16] was 8.4%, the residual binding, % of control [17] was 0.15% and the residual binding, % of control [18] was 0%. The residual binding, % of control [19] was 0.7%, the residual binding, % of control [20] was 0% and the inhibition [21] was 77%. For the same compound, the residual binding, % of control [22] was 92%, the inhibition [23] was 67% and the residual binding, % of control [24] was 2.6%. The residual binding, % of control [25] was 0%, the inhibition [26] was 51% and the residual binding, % of control [27] was 0.85%. The residual binding, % of control [28] was 0.25%, the inhibition [29] was 57% and the residual binding, % of control [30] was 64%. The level, % of control [31] was 100%, the level, % of control [32] was 23% and the residual binding, % of control [33] was 0.4%. It also gave a residual binding, % of control [34] of 85%, an EC50 (BaF3) of 1590 nM and an inhibition [35] of 54%. It also gave an inhibition [36] of 19%, a level, % of control [37] of 21% and a residual binding, % of control [38] of 100%. It also gave an inhibition [39] of 53%, an inhibition [40] of 90% and a residual binding, % of control [41] of 96%. For the same compound, the residual binding, % of control [42] was 2% and the inhibition [43] was 90%.
`CCN1CCN(Cc2ccc(NC(=O)c3ccc(C)c(C#Cc4cnc5[nH]ccc5c4)c3)cc2C(F)(F)F)CC1` showed an inhibition [1] of 11%, an inhibition [2] of 8% and an inhibition [3] of 0.65%. The inhibition [4] was 9.5%, the inhibition [5] was 60% and the inhibition [6] was 100%. For the same compound, the inhibition [7] was 84%, the residual binding, % of control [8] was 0.2% and the level, % of control [9] was 0%. For the same compound, the residual binding, % of control [10] was 0%, the level, % of control [11] was 0.1% and the residual binding, % of control [12] was 0%. It also gave an inhibition [13] of 93%, a residual binding, % of control [14] of 15% and a residual binding, % of control [15] of 100%. The residual binding, % of control [16] was 46%, the residual binding, % of control [17] was 0.15% and the residual binding, % of control [18] was 0.15%. The residual binding, % of control [19] was 0.2%, the residual binding, % of control [20] was 0% and the inhibition [21] was 50%. The residual binding, % of control [22] was 98%, the inhibition [23] was 79% and the residual binding, % of control [24] was 1.1%. It also gave a residual binding, % of control [25] of 0.1%, an inhibition [26] of 63% and a residual binding, % of control [27] of 0.75%. It also gave a residual binding, % of control [28] of 0.15%, an inhibition [29] of 56% and a residual binding, % of control [30] of 37%. For the same compound, the level, % of control [31] was 100%, the level, % of control [32] was 52% and the residual binding, % of control [33] was 0.4%. For the same compound, the residual binding, % of control [34] was 63%, the EC50 (BaF3) was 1000 nM and the inhibition [35] was 84%. It also gave an inhibition [36] of 18%, a level, % of control [37] of 29% and a residual binding, % of control [38] of 96%. The inhibition [39] was 34%, the inhibition [40] was 92% and the residual binding, % of control [41] was 60%. The residual binding, % of control [42] was 0.65% and the inhibition [43] was 73%.
